Test [1] concerns p21 induction in HCT116 cells. Description: p21 induction in HCT116 cells. Format: cell-based. The note with it: Homo sapiens, HCT-116, 24 h, read-out: P21_EC50. An outline of the steps:
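HCT116 cells, 2,000/well, treated 24 h at 37 °C with 11-point compound dilutions in duplicate. Fixed, then immunostained for p21 and GAPDH and read by near-IR imaging at 800/700 nm. Normalized to DMSO (low) and reference WRN inhibitor (high) controls; EC50 from non-linear regression.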

Test [2] concerns the target WRN (BV08), human Werner helicase (Uniprot Q14191, amino acids 517-1235 with L1074F point mutation) (Homo sapiens (Human), UniProt Q14191, L1074F). Description: WRN (BV08) ADP-Glo assay. It is filed as biochemical. The note with it: class symbols A-E, read-out: ADP-Glo_hWRN_IC50.
Where [3] appears, read: HCT116 cells, 24 h compound incubation.

Where two headings read alike, the source gives them in different places. A value given as a limit tells only on which side of the number the result lay.

Chain of WRN (BV08), human Werner helicase (Uniprot Q14191, amino acids 517-1235 with L1074F point mutation) (Q14191 other isoform, or with tags, fused parts or gaps L1074F (already in the parent)): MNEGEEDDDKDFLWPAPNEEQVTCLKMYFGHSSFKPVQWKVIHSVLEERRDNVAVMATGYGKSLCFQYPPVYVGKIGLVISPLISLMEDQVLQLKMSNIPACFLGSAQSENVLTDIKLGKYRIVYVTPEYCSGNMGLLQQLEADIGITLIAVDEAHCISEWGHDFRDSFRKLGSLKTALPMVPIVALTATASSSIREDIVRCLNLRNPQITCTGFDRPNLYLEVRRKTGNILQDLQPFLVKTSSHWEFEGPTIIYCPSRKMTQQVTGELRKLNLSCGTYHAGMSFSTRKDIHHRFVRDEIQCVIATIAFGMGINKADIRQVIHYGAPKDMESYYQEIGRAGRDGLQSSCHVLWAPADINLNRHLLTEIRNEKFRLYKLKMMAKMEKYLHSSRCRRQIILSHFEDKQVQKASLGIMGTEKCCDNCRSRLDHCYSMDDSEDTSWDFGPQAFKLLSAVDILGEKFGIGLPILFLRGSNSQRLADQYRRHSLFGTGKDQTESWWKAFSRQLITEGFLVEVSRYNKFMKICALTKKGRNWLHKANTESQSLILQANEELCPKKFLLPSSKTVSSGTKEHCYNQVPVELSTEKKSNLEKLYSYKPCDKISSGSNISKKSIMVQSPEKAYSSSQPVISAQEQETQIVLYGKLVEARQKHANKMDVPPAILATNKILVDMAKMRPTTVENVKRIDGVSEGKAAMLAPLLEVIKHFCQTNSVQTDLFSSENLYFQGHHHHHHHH

For the molecule `CCc1c(N2CCN(C(=O)c3ncnc(C)c3O)[C@H]3CC(F)(F)C[C@@H]32)c(=O)c2nc(N(C)C)cnc2n1CC(=O)Nc1ccc(C(F)(F)F)cc1Cl` (single isomer, unassigned) [I-296, N-(2-chloro-4-(trifluoromethyl)phenyl)-2-(7-(6,6-difluoro-4-(5-hydroxy-6-methylpyrimidine-4-carbonyl)octahydro-1H-cyclopenta[b]pyrazin-1-yl)-2-(dimethylamino)-6-ethyl-8-oxopyrido[2,3-b]pyrazin-5(8H)-yl)acetamide], the EC50 in test [1] (setting [3]) was in the range of 500 to 2000 nM. Moreover, the IC50 in test [2] was in the range of 5 to 50 nM.
For `CCc1c(N2CCN(C(=O)c3ncnc(C)c3O)[C@@H]3CC(F)(F)C[C@H]32)c(=O)c2nc(N(C)C)cnc2n1CC(=O)Nc1ccc(C(F)(F)F)cc1Cl` (single isomer, unassigned) [I-297, N-(2-chloro-4-(trifluoromethyl)phenyl)-2-(7-(6,6-difluoro-4-(5-hydroxy-6-methylpyrimidine-4-carbonyl)octahydro-1H-cyclopenta[b]pyrazin-1-yl)-2-(dimethylamino)-6-ethyl-8-oxopyrido[2,3-b]pyrazin-5(8H)-yl)acetamide] the same measures were over 5000 nM and 100 to 500 nM.
Consider `CCc1c(N2CCN(C(=O)c3ncnc(C)c3O)[C@@H](COC)C2)c(=O)c2nc(N(C)C)cnc2n1CC(=O)Nc1ccc(C(F)(F)F)cc1Cl` (single isomer, unassigned) [I-303, N-(2-chloro-4-(trifluoromethyl)phenyl)-2-(2-(dimethylamino)-6-ethyl-7-(4-(5-hydroxy-6-methylpyrimidine-4-carbonyl)-3-(methoxymethyl)piperazin-1-yl)-8-oxopyrido[2,3-b]pyrazin-5(8H)-yl)acetamide], for which the EC50 in test [1] (setting [3]) was over 5000 nM. In test [2], the IC50 was in the range of 50 to 100 nM.
For `CCc1c(N2CCN(C(=O)c3ncnc(C)c3O)CC2)c(=O)c2nc(C3CC3(F)F)cnc2n1CC(=O)Nc1ccc(C(F)(F)F)cc1Cl` (stereo in doubt) [I-237, N-[2-chloro-4-(trifluoromethyl)phenyl]-2-{2-[(1R)-2,2-difluorocyclopropyl]-6-ethyl-7-[4-(5-hydroxy-6-methylpyrimidine-4-carbonyl)piperazin-1-yl]-8-oxo-5H,8H-pyrido[2,3-b]pyrazin-5-yl}acetamide] the same measures were over 5000 nM and 5 to 50 nM.
For `CCc1c(N2CCN(C(=O)c3ncnc(C)c3O)CC2)c(=O)c2ncc(C)nc2n1CC(=O)Nc1ccc(C(F)(F)F)cc1Cl` [I-1, N-(2-chloro-4-(trifluoromethyl)phenyl)-2-(6-ethyl-7-(4-(5-hydroxy-6-methylpyrimidine-4-carbonyl)piperazin-1-yl)-3-methyl-8-oxopyrido[2,3-b]pyrazin-5(8H)-yl)acetamide], the EC50 in test [1] lay within 2000 to 5000 nM. Moreover, in test [2], the IC50 lay in the range of 5 to 50 nM.
Turning to `CCc1c(N2CCN(C(=O)c3cnn(C)c3)CC2)c(=O)c2ncc(C)nc2n1CC(=O)Nc1ccc(C(F)(F)F)cc1Cl` [I-2, N-(2-chloro-4-(trifluoromethyl)phenyl)-2-(6-ethyl-3-methyl-7-(4-(1-methyl-1H-pyrazole-4-carbonyl)piperazin-1-yl)-8-oxopyrido[2,3-b]pyrazin-5(8H)-yl)acetamide], the EC50 in test [1] (setting [3]) was over 5000 nM. The IC50 in test [2] fell in the range of 50 to 100 nM.
With `CCc1c(N2CCN(C(=O)c3ncccc3O)CC2)c(=O)c2ncc(C)nc2n1CC(=O)Nc1ccc(C(F)(F)F)cc1Cl` [I-3, N-(2-chloro-4-(trifluoromethyl)phenyl)-2-(6-ethyl-7-(4-(3-hydroxypicolinoyl)piperazin-1-yl)-3-methyl-8-oxopyrido[2,3-b]pyrazin-5(8H)-yl)acetamide], in test [1] (setting [3]), the EC50 is over 5000 nM. Besides, the IC50 in test [2] was in the range of 5 to 50 nM.
For `CCc1c(N2CCN(C(=O)c3ccnc(OC)c3O)CC2)c(=O)c2ncc(C)nc2n1CC(=O)Nc1ccc(C(F)(F)F)cc1Cl` [I-4, N-(2-chloro-4-(trifluoromethyl)phenyl)-2-(6-ethyl-7-(4-(3-hydroxy-2-methoxyisonicotinoyl)piperazin-1-yl)-3-methyl-8-oxopyrido[2,3-b]pyrazin-5(8H)-yl)acetamide] the same measures were over 5000 nM and 5 to 50 nM.
For `CCc1c(N2CCN(C(C)=O)CC2)c(=O)c2ncc(C)nc2n1CC(=O)Nc1ccc(C(F)(F)F)cc1Cl` [I-5, 2-(7-(4-acetylpiperazin-1-yl)-6-ethyl-3-methyl-8-oxopyrido[2,3-b]pyrazin-5(8H)-yl)-N-(2-chloro-4-(trifluoromethyl)phenyl)acetamide] the same measures were over 5000 nM and 100 to 500 nM.
`CCc1c(N2CCN(C(=O)c3c(O)ccnc3OC)CC2)c(=O)c2ncc(C)nc2n1CC(=O)Nc1ccc(C(F)(F)F)cc1Cl` [I-6, N-(2-chloro-4-(trifluoromethyl)phenyl)-2-(6-ethyl-7-(4-(4-hydroxy-2-methoxynicotinoyl)piperazin-1-yl)-3-methyl-8-oxopyrido[2,3-b]pyrazin-5(8H)-yl)acetamide]: the EC50 in test [1] (setting [3]) lay in the range of 2000 to 5000 nM. Also, the IC50 in test [2] is 5 to 50 nM.
The corresponding values for `CCc1c(N2CCN(C(=O)c3ncnc(C)c3O)CC2)c(=O)c2nc(-c3ccnc(OC)c3)cnc2n1CC(=O)Nc1ccc(C(F)(F)F)cc1Cl` [I-7, N-(2-chloro-4-(trifluoromethyl)phenyl)-2-(6-ethyl-7-(4-(5-hydroxy-6-methylpyrimidine-4-carbonyl)piperazin-1-yl)-2-(2-methoxypyridin-4-yl)-8-oxopyrido[2,3-b]pyrazin-5(8H)-yl)acetamide] are over 5000 nM and 5 to 50 nM.
For `C/C=C/c1cnc2c(n1)c(=O)c(N1CCN(C(=O)c3ncnc(C)c3O)CC1)c(CC)n2CC(=O)Nc1ccc(C(F)(F)F)cc1Cl` [I-8, (E)-N-(2-chloro-4-(trifluoromethyl)phenyl)-2-(6-ethyl-7-(4-(5-hydroxy-6-methylpyrimidine-4-carbonyl)piperazin-1-yl)-8-oxo-2-(prop-1-en-1-yl)pyrido[2,3-b]pyrazin-5(8H)-yl)acetamide] the same measures were 500 to 2000 nM and 5 to 50 nM.
For `C=C(C)c1cnc2c(n1)c(=O)c(N1CCN(C(=O)c3ncnc(C)c3O)CC1)c(CC)n2CC(=O)Nc1ccc(C(F)(F)F)cc1Cl` [I-9, N-(2-chloro-4-(trifluoromethyl)phenyl)-2-(6-ethyl-7-(4-(5-hydroxy-6-methylpyrimidine-4-carbonyl)piperazin-1-yl)-8-oxo-2-(prop-1-en-2-yl)pyrido[2,3-b]pyrazin-5(8H)-yl)acetamide] the same measures were 500 to 2000 nM and 5 to 50 nM.
In the case of `CCc1c(N2CCN(C(=O)c3ncnc(C)c3O)CC2)c(=O)c2nc(C3CC3)cnc2n1CC(=O)Nc1ccc(C(F)(F)F)cc1Cl` [I-10, N-(2-chloro-4-(trifluoromethyl)phenyl)-2-(2-cyclopropyl-6-ethyl-7-(4-(5-hydroxy-6-methylpyrimidine-4-carbonyl)piperazin-1-yl)-8-oxopyrido[2,3-b]pyrazin-5(8H)-yl)acetamide], the EC50 in test [1] (setting [3]) was 2000 to 5000 nM. The IC50 in test [2] lay within 5 to 50 nM.
The corresponding values for `CC#Cc1cnc2c(n1)c(=O)c(N1CCN(C(=O)c3ncnc(C)c3O)CC1)c(CC)n2CC(=O)Nc1ccc(C(F)(F)F)cc1Cl` [I-11, N-(2-chloro-4-(trifluoromethyl)phenyl)-2-(6-ethyl-7-(4-(5-hydroxy-6-methylpyrimidine-4-carbonyl)piperazin-1-yl)-8-oxo-2-(prop-1-yn-1-yl)pyrido[2,3-b]pyrazin-5(8H)-yl)acetamide] are 2000 to 5000 nM and 5 to 50 nM.
In the case of `CCc1c(N2CCN(C(=O)c3ncnc(C)c3O)CC2)c(=O)c2nc(OC)c(C)nc2n1CC(=O)Nc1ccc(C(F)(F)F)cc1Cl` [I-12, N-(2-chloro-4-(trifluoromethyl)phenyl)-2-(6-ethyl-7-(4-(5-hydroxy-6-methylpyrimidine-4-carbonyl)piperazin-1-yl)-2-methoxy-3-methyl-8-oxopyrido[2,3-b]pyrazin-5(8H)-yl)acetamide], in test [1] (setting [3]), the EC50 is over 5000 nM. For the same molecule, the IC50 in test [2] fell in the range of 5 to 50 nM.
Take `CCc1c(N2CCN(C(=O)c3ncnc(C)c3O)CC2)c(=O)c2nc(C(F)F)cnc2n1CC(=O)Nc1ccc(C(F)(F)F)cc1Cl` [I-13, N-(2-chloro-4-(trifluoromethyl)phenyl)-2-(2-(difluoromethyl)-6-ethyl-7-(4-(5-hydroxy-6-methylpyrimidine-4-carbonyl)piperazin-1-yl)-8-oxopyrido[2,3-b]pyrazin-5(8H)-yl)acetamide]: the EC50 in test [1] (setting [3]) is over 5000 nM. In test [2], the IC50 fell in the range of 50 to 100 nM.
Turning to `CCc1c(N2CCN(C(=O)c3ncnc(C)c3O)CC2)c(=O)c2nc(N(C)C)cnc2n1CC(=O)Nc1ccc(C(F)(F)F)cc1Cl` [I-14, N-(2-chloro-4-(trifluoromethyl)phenyl)-2-(2-(dimethylamino)-6-ethyl-7-(4-(5-hydroxy-6-methylpyrimidine-4-carbonyl)piperazin-1-yl)-8-oxopyrido[2,3-b]pyrazin-5(8H)-yl)acetamide], the EC50 in test [1] was 500 to 2000 nM. Further, the IC50 in test [2] lay within 5 to 50 nM.
On to `CCO/C=C/c1cnc2c(n1)c(=O)c(N1CCN(C(=O)c3ncnc(C)c3O)CC1)c(CC)n2CC(=O)Nc1ccc(C(F)(F)F)cc1Cl` [I-15, (E)-N-(2-chloro-4-(trifluoromethyl)phenyl)-2-(2-(2-ethoxyvinyl)-6-ethyl-7-(4-(5-hydroxy-6-methylpyrimidine-4-carbonyl)piperazin-1-yl)-8-oxopyrido[2,3-b]pyrazin-5(8H)-yl)acetamide], for which, in test [1] (setting [3]), the EC50 is under 500 nM. The IC50 in test [2] is 5 to 50 nM.
As to `CCc1c(N2CCN(C(=O)c3ncnc(C)c3O)CC2)c(=O)c2nc(C3CC3)c(C)nc2n1CC(=O)Nc1ccc(C(F)(F)F)cc1Cl` [I-17, N-(2-chloro-4-(trifluoromethyl)phenyl)-2-(2-cyclopropyl-6-ethyl-7-(4-(5-hydroxy-6-methylpyrimidine-4-carbonyl)piperazin-1-yl)-3-methyl-8-oxopyrido[2,3-b]pyrazin-5(8H)-yl)acetamide], the EC50 in test [1] (setting [3]) lay within 500 to 2000 nM. For the same molecule, in test [2], the IC50 lay within 5 to 50 nM.

Values taken from patent US20250034136A1 (Nimbus Wadjet, Inc., priority 2023, published 2025).
